Where two headings read alike, the source gives them in different places.
Tested on: mice
Experiment: Neuropharmacological Assay (SmartCube)
Assay type: in vivo
Conditions: for minimal effective dose: Mus musculus, read-out: POTENCY (minimal effective dose, MED); for AD: ADHD (SmartCube probability) / AG: analgesic (SmartCube probability) / AX: anxiolytic (SmartCube probability) / CE: cognitive enhancer (SmartCube probability) / DP: anti-depressant (SmartCube probability) / MS: mood stabilizer (SmartCube probability) / PS: anti-psychotic (SmartCube probability) / SD: sedative hypnotic (SmartCube probability) / UN: uncharacterized CNS activity (SmartCube probability): mice, i.p. 15 min before test, most efficacious dose(s) of 3 doses
Summary of the method: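 Compounds in NMP/PEG/propylene glycol given i.p. 15 min before automated video-based behavioral testing, at 3 doses; behavioral signature compared with a reference-compound database to give probability per drug class, reported at most efficacious dose. MED = dose (mpk) giving ≥50% total activity; doses typically 0.3–30 mpk.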

[1] = MED = dose having 50% or more total activity in SmartCube

| Compound | minimal effective dose [1] | AD: ADHD (SmartCube probability) | AG: analgesic (SmartCube probability) | AX: anxiolytic (SmartCube probability) | CE: cognitive enhancer (SmartCube probability) | DP: anti-depressant (SmartCube probability) | MS: mood stabilizer (SmartCube probability) | PS: anti-psychotic (SmartCube probability) | SD: sedative hypnotic (SmartCube probability) | UN: uncharacterized CNS activity (SmartCube probability) | minimal effective dose |
| --- | --- | --- | --- | --- | --- | --- | --- | --- | --- | --- | --- |
| Cc1cccc2c1CCO[C@@H]2CN [Example 72, (S)-(5-methylisochroman-1-yl)methanamine] | 3 to 10 mg/kg | + (LOQ≤ + <5%) | + (LOQ≤ + <5%) | ++ (5%≤ ++ <25%) | + (LOQ≤ + <5%) | ++ (5%≤ ++ <25%) | + (LOQ≤ + <5%) | + (LOQ≤ + <5%) | + (LOQ≤ + <5%) | +++ (25%≤ +++ <50%) |  |
| Cc1cccc2c1CCO[C@H]2CN [Example 73, (R)-(5-methylisochroman-1-yl)methanamine] | < 3 mg/kg | + (LOQ≤ + <5%) | + (LOQ≤ + <5%) | ++ (5%≤ ++ <25%) | ++ (5%≤ ++ <25%) | +++ (25%≤ +++ <50%) | + (LOQ≤ + <5%) | + (LOQ≤ + <5%) | ++ (5%≤ ++ <25%) | ++++ (50%≤ ++++) |  |
| Cc1cccc2c1[C@@H](CN)OCC2 [Example 74, (S)-(8-methylisochroman-1-yl)methanamine] | 10 to 30 mg/kg | + (LOQ≤ + <5%) | + (LOQ≤ + <5%) | ++ (5%≤ ++ <25%) | + (LOQ≤ + <5%) | + (LOQ≤ + <5%) | + (LOQ≤ + <5%) | + (LOQ≤ + <5%) | ++ (5%≤ ++ <25%) | +++ (25%≤ +++ <50%) |  |
| Cc1cccc2c1[C@H](CN)OCC2 [Example 75, (R)-(8-methylisochroman-1-yl)methanamine] | 3 to 10 mg/kg | + (LOQ≤ + <5%) | ++ (5%≤ ++ <25%) | ++ (5%≤ ++ <25%) | ++ (5%≤ ++ <25%) | ++ (5%≤ ++ <25%) | + (LOQ≤ + <5%) | ++ (5%≤ ++ <25%) | + (LOQ≤ + <5%) | ++++ (50%≤ ++++) |  |
| CNC[C@H]1OCCc2c1cccc2C(F)(F)F [Example 78, (S)-N-methyl-1-(5-(trifluoromethyl)isochroman-1-yl)-methanamine] | 10 to 30 mg/kg | + (LOQ≤ + <5%) | ++ (5%≤ ++ <25%) | ++ (5%≤ ++ <25%) | + (LOQ≤ + <5%) | ++ (5%≤ ++ <25%) | + (LOQ≤ + <5%) | + (LOQ≤ + <5%) | + (LOQ≤ + <5%) | ++++ (50%≤ ++++) |  |
| CNC[C@@H]1OCCc2c1cccc2C(F)(F)F [Example 79] | < 3 mg/kg | ++ (5%≤ ++ <25%) | + (LOQ≤ + <5%) | + (LOQ≤ + <5%) | + (LOQ≤ + <5%) | ++++ (50%≤ ++++) | + (LOQ≤ + <5%) | + (LOQ≤ + <5%) | ++ (5%≤ ++ <25%) | + (LOQ≤ + <5%) |  |
| CNC[C@H]1OCCc2cc(Cl)ccc21 [Example 80, (S)-1-(6-chloroisochroman-1-yl)-N-methylmethanamine] | 10 to 30 mg/kg | + (LOQ≤ + <5%) | + (LOQ≤ + <5%) | ++ (5%≤ ++ <25%) | ++ (5%≤ ++ <25%) | ++ (5%≤ ++ <25%) | + (LOQ≤ + <5%) | +++ (25%≤ +++ <50%) | + (LOQ≤ + <5%) | + (LOQ≤ + <5%) |  |
| CNC[C@@H]1OCCc2cc(Cl)ccc21 [Example 81, (R)-1-(6-chloroisochroman-1-yl)-N-methylmethanamine] | < 3 mg/kg | ++ (5%≤ ++ <25%) | + (LOQ≤ + <5%) | ++ (5%≤ ++ <25%) | + (LOQ≤ + <5%) | ++++ (50%≤ ++++) | + (LOQ≤ + <5%) | + (LOQ≤ + <5%) | + (LOQ≤ + <5%) | ++ (5%≤ ++ <25%) |  |
| CN(C)C[C@H]1OCCc2cccc(F)c21 [Example 84, (S)-1-(8-fluoroisochroman-1-yl)-N,N-dimethylmethanamine] | < 3 mg/kg | + (LOQ≤ + <5%) | ++ (5%≤ ++ <25%) | ++ (5%≤ ++ <25%) | ++ (5%≤ ++ <25%) | ++ (5%≤ ++ <25%) | + (LOQ≤ + <5%) | ++ (5%≤ ++ <25%) | ++ (5%≤ ++ <25%) | ++++ (50%≤ ++++) |  |
| CN(C)C[C@@H]1OCCc2cccc(F)c21 [Example 85, (R)-1-(8-fluoroisochroman-1-yl)-N,N-dimethylmethanamine] | < 3 mg/kg | + (LOQ≤ + <5%) | + (LOQ≤ + <5%) | +++ (25%≤ +++ <50%) | ++ (5%≤ ++ <25%) | ++ (5%≤ ++ <25%) | + (LOQ≤ + <5%) | ++ (5%≤ ++ <25%) | ++ (5%≤ ++ <25%) | +++ (25%≤ +++ <50%) |  |
| CCNC[C@H]1OCCc2cccc(F)c21 [Example 86, (S)-N-((8-fluoroisochroman-1-yl)methyl)ethanamine] | 10 to 30 mg/kg | ++ (5%≤ ++ <25%) | + (LOQ≤ + <5%) | ++ (5%≤ ++ <25%) | ++ (5%≤ ++ <25%) | ++ (5%≤ ++ <25%) | + (LOQ≤ + <5%) | ++ (5%≤ ++ <25%) | +++ (25%≤ +++ <50%) | + (LOQ≤ + <5%) |  |
| CCNC[C@@H]1OCCc2cccc(F)c21 [Example 87, (R)-N-((8-fluoroisochroman-1-yl)methyl)ethanamine] | < 3 mg/kg | + (LOQ≤ + <5%) | ++ (5%≤ ++ <25%) | ++ (5%≤ ++ <25%) | + (LOQ≤ + <5%) | ++ (5%≤ ++ <25%) | + (LOQ≤ + <5%) | ++ (5%≤ ++ <25%) | + (LOQ≤ + <5%) | ++++ (50%≤ ++++) |  |
| CNC[C@H]1OCc2c(Cl)cccc21 [Example 92, (S)-1-(4-chloro-1,3-dihydroisobenzofuran-1-yl)-N-methylmethanamine] | 10 to 30 mg/kg | + (LOQ≤ + <5%) | ++ (5%≤ ++ <25%) | ++ (5%≤ ++ <25%) | ++ (5%≤ ++ <25%) | ++ (5%≤ ++ <25%) | + (LOQ≤ + <5%) | + (LOQ≤ + <5%) | ++ (5%≤ ++ <25%) | +++ (25%≤ +++ <50%) |  |
| CNC[C@@H]1OCc2c(Cl)cccc21 [Example 93, (R)-1-(4-chloro-1,3-dihydroisobenzofuran-1-yl)-N-methyl-methanamine] | < 3 mg/kg | +++ (25%≤ +++ <50%) | ++ (5%≤ ++ <25%) | +++ (25%≤ +++ <50%) | ++ (5%≤ ++ <25%) | ++ (5%≤ ++ <25%) | + (LOQ≤ + <5%) | + (LOQ≤ + <5%) | ++ (5%≤ ++ <25%) | ++++ (50%≤ ++++) |  |
| Fc1cccc2c1[C@@H](CNC1CCC1)OCC2 [Example 96, (S)-N-((8-fluoroisochroman-1-yl)methyl)cyclobutanamine] |  | + (LOQ≤ + <5%) | + (LOQ≤ + <5%) | + (LOQ≤ + <5%) | + (LOQ≤ + <5%) | + (LOQ≤ + <5%) | + (LOQ≤ + <5%) | + (LOQ≤ + <5%) | +++ (25%≤ +++ <50%) | + (LOQ≤ + <5%) | 10 to 30 mg/kg |
